We go through two molecules from PMC11748629, “Unidirectional MCM translocation away from ORC drives origin licensing” (Nature Communications, 2025).

Assay in all cases: cryo-EM structure
Experiment [1] has as its system T1, MCM-Cdt1 complex.
T1 construct: gene MCM2; with Cell division cycle protein CDT1
The experiment is classed as binding, Saccharomyces cerevisiae. To be noted: OCCM-Mcm2RA complex on ARS1 DNA with ORC-Cdc6; 3 mM ATP added, Mg2+, pH 7.6, 30 C; all six MCM ATPase sites occupied, ADP assigned from density.

Experiment [2] deals with T1, MCM-Cdt1 complex. The class given is binding, Saccharomyces cerevisiae. To be noted: OC1M-Mcm5RA complex (no Cdc6) on ARS1 DNA with ORC; 2 mM ATP added, Mg2+, pH 7.6, 30 C; sites Mcm5/2, 2/6, 6/4 and 4/7; conformers 1 and 2.
A further experiment concerns the target T2, ORC complex (Saccharomyces cerevisiae, UniProt P50874+P54784+P54790+P54791).
T2 construct: gene ORC1; with Origin recognition complex subunit 2; Origin recognition complex subunit 6
The class given is binding. The settings on record: wild-type ORC in OCCM-Mcm2RA (sites Orc4-Orc1, Orc5-Orc4, Orc3-Orc5) and in OC1M-Mcm5RA (Orc5-Orc4, Orc3-Orc5); 2-3 mM ATP, Mg2+, pH 7.6, 30 C.

T2 sequence (P54784 whole entry): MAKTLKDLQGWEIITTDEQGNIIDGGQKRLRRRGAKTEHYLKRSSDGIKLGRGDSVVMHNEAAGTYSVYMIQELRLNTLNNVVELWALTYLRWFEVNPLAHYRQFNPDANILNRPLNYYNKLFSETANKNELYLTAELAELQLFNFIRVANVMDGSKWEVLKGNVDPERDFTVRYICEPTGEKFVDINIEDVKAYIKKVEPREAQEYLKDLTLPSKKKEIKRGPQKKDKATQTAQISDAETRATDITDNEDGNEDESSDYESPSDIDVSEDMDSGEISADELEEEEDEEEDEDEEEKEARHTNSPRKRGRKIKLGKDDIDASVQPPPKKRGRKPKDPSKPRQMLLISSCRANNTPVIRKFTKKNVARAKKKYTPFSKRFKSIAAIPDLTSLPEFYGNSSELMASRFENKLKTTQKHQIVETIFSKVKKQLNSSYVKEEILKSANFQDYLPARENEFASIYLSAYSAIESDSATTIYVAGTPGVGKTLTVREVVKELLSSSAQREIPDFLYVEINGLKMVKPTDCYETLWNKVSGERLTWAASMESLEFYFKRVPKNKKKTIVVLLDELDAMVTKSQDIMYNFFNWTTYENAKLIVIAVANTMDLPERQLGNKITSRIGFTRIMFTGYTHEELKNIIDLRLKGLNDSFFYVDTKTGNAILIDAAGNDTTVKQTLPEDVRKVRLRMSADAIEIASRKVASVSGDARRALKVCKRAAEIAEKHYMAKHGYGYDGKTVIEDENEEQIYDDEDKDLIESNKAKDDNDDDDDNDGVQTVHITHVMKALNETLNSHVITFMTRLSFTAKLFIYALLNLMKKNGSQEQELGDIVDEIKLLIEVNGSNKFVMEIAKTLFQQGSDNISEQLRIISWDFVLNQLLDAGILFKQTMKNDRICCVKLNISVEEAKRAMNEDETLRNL
T2 sequence (P54790 2-616): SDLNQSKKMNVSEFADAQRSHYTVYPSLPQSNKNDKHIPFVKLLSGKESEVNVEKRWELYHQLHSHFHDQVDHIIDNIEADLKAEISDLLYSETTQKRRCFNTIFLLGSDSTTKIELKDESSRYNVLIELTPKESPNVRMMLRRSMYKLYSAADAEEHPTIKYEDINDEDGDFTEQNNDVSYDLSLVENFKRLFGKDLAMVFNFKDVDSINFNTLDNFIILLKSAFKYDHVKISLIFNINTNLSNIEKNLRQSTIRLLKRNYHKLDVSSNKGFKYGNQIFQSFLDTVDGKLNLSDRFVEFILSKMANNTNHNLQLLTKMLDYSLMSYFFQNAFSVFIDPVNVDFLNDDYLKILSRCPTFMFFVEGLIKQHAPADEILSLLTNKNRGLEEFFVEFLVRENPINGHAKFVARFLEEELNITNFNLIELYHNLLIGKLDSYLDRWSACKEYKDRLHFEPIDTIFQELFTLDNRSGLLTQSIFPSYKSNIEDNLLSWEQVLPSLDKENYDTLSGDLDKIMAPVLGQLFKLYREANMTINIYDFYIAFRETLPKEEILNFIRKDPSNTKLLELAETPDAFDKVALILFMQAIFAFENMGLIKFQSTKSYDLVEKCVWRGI
T2 sequence (P54791 whole entry): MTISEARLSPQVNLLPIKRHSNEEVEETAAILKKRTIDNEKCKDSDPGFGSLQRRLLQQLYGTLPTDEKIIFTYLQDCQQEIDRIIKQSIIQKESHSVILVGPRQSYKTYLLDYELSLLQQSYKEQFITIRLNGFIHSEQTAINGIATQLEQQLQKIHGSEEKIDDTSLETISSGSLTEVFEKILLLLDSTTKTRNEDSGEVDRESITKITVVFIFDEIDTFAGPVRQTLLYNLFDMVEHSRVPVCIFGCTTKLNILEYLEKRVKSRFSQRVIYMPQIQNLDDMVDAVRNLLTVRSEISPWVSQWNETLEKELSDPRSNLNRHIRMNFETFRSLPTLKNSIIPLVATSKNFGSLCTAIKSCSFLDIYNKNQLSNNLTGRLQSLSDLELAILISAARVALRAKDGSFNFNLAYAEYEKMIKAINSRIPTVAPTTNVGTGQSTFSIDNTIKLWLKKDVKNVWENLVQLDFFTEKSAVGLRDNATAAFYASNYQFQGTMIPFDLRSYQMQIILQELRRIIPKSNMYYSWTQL
T2 sequence (P50874 whole entry): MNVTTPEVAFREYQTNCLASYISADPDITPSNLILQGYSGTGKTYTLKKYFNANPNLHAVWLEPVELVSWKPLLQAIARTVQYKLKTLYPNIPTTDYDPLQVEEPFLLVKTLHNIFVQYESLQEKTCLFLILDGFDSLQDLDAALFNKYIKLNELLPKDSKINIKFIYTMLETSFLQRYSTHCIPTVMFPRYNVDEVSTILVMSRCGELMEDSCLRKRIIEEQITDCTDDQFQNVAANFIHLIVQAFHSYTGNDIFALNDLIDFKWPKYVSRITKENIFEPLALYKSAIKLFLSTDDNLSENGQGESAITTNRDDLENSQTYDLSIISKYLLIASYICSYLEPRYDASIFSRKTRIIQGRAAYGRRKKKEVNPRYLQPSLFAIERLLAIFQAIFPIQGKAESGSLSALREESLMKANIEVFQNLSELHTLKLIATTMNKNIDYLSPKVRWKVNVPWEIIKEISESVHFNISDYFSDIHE
T2 sequence (P32833 whole entry partner): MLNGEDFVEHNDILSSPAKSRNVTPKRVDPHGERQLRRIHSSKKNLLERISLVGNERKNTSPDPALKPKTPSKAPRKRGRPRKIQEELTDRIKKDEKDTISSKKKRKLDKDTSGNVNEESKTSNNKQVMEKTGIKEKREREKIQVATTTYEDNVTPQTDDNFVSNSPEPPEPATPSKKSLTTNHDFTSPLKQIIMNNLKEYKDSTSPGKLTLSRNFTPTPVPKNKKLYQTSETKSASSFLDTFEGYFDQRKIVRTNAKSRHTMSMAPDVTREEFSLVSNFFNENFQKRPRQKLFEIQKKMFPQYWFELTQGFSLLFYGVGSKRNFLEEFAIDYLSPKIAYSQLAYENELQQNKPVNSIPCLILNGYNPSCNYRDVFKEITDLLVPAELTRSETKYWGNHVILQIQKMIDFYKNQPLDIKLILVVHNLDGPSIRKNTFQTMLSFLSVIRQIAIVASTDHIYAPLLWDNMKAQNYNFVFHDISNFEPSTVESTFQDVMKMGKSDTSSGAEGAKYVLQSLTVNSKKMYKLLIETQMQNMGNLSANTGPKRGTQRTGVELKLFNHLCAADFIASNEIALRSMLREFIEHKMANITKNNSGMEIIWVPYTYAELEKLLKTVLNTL
T2 sequence (P38826 whole entry partner): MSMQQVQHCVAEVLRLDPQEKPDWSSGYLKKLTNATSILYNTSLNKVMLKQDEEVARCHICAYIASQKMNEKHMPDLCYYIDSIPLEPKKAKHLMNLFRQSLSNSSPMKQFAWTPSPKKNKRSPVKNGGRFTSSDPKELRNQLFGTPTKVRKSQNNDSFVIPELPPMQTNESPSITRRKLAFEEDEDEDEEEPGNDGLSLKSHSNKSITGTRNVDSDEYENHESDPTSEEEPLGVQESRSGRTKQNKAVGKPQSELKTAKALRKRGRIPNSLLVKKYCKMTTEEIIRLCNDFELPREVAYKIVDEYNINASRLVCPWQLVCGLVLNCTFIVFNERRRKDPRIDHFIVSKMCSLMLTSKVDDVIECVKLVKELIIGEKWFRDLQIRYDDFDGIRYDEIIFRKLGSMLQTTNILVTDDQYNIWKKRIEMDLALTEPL

For `Nc1ncnc2c1ncn2[C@@H]1O[C@H](COP(=O)(O)OP(=O)(O)O)[C@@H](O)[C@H]1O` [ADP], the cryo-EM structure entry with MCM-Cdt1 complex [1] is “All six ATPase sites were identified as occupied, with ADP modelled based on the density”; with MCM-Cdt1 complex [2], “Four ATPase sites were identified as occupied, with ADP modelled based on the density”.

With `Nc1ncnc2c1ncn2[C@@H]1O[C@H](COP(=O)(O)OP(=O)(O)OP(=O)(O)O)[C@@H](O)[C@H]1O` [ATP], the cryo-EM structure result on ORC complex is “ATP can only be observed in the Orc4-Orc1, Orc5-4 and Orc3-5 nucleotide-binding sites”.
